According to patent publication US5863950A, “HIV protease inhibitors” (Agouron Pharmaceuticals, Inc., priority 1994, dated 1999):
Converted amounts (≈) assume the structure as drawn. Like-named read-outs stand apart in the source and are kept apart here.

Assays:
HIV = assay: antiviral assay (enantiomer comparison, cell line not given); format: cell-based; settings: enantiomers compared with each other
HIV-1 (CEM cells) = assay: Anti-HIV MTT assay, inhibition of HIV-induced cell killing, CEM cells; format: cell-based, HIV-1 isolates IIIB and/or RF; settings: Human immunodeficiency virus 1, CCRF-CEM, 144 h, CEM cell line (first position), 6 days, 37° C., read-out: Viral CEM
Source text: (§1) SRI has an established program for the primary antiviral analysis of compounds in microtiter assays which measure the ability of a selected compound to inhibit HIV-induced cell killing. This assay involves the conversion of the tetrazolium dye MTT to a colored formazan product by mitochondrial enzymes in metabolically active cells. This assay system is presently used at SRI to screen over 30,000 compounds per year. Briefly, the assay involves the infection of CEM or MT2 cells in round bottom 96-well plates. The compound of interest is added just prior to infection. Following 6 days of incubation at 37° C. the plates are stained with MTT. The results of the assay are quantitated spectrophotometrically on a Molecular Devices Vmax plate reader. The data is analyzed by linear regression utilizing an in-house software program to calculate antiviral activity. (IC25, IC50, IC95) and toxicity (TC25, TC50, TC95) as well as other values.
(§2) Primary antiviral assays are routinely performed in CEM or MT-2 cells.
(§3) Drugs will be solubilized in the appropriate vehicle such as distilled water or DMSO if necessary. Latex gloves, lab coats and masks are used during all phases of the handling process to prevent exposure to potentially harmful agents. The drug is prepared at the appropriate concentration and stored at -20° C. until used by the screening laboratory. The first dilution of each compound is made in a dilution tube with medium to yield a concentration two-fold that of the highest test concentration. Sterile titer tubes are then used to make serial one half-log dilutions of each compound. Following drug dilution, the diluted compound is added to the appropriate well of a 96-well microtiter plate. Up to 12 dilutions can be assayed conveniently in triplicate on a single plate with all appropriate controls including cell control, virus control, toxicity control, drug color control, medium control and plastic (background) control. When testing includes only six dilutions, two drugs can be assayed on a single microtiter plate. The drugs are added to the plate in a final volume of 100 microliters.
(§4) During the time the drug dilutions are prepared, cells are washed and counted. Viability is monitored by trypan blue dye exclusion and assays are not performed if the viability falls below 90%. Cells are maintained in an exponential growth phase and are split 1:2 on the day prior to assay to assure exponential growth rate.
(§5) For the primary screen, the cell lines utilized are CEM and MT-2. Unless otherwise indicated, the medium used is RPMI 1640 with 10% heat-inactivated fetal calf serum (FBS), glutamine and antibiotics.
(§6) Cells are propagated at 37° C. in an atmosphere of 5% CO2 in air. The virus employed for this work is HIV-1 isolates IIIB and/or RF, which are prepared by an acute infection process.
(§7) Briefly, virus-infected cells are pelleted on a daily basis beginning at three days post-infection until the virus has killed all of the cells in the culture. Reverse transcriptase activity and p24 ELISA are used to identify pools with the greatest amount of virus.
(§8) These 24-hour harvests are pooled, filtered and frozen at -90° C. Prior to use in the assay, the infectious pool of virus is titered on all available cell lines in order to determine the amount of virus required in the antiviral assay.
(§9) In general, pools produced by the acute infection method require the addition of one microliter of infectious virus per well resulting in the screening of drugs at a multiplicity of infection of 0.01. In this manner enough virus is prepared and frozen to complete over one thousand microtiter plates, allowing the testing of up to two thousand compounds from a single stock of infectious virus. The use of a single stock of virus for a long period of testing has very favorable effects on the repeatability of the assay systems.
(§10) Virus infection of the CEM and MT-2 cells for the antiviral assay is carried out in a bulk infection process. […]

HIV-1 (MT-2 cells) = assay: Anti-HIV MTT assay, inhibition of HIV-induced cell killing, MT-2 cells; format: cell-based, HIV-1 isolates IIIB and/or RF; settings: Human immunodeficiency virus 1, MT2, 144 h; MT-2 cells (second position), 6 days, 37° C., MTT; read-out: Viral MT-2
Source text: as §1, §2, §3, §4, §5, §6, §7, §8, §9, §10

HIV-1 protease = target: T1, HIV-1 protease (Human immunodeficiency virus type 1 group M subtype B, UniProt P04585); assay: biochemical; format: biochemical
T1 construct: purified HIV-1 protease

[1] = 0.5M NaCl, 50 mM MES pH 5.6, 2% DMSO, 37° C., 200 μM substrate

Compound | IC50 (HIV-1 protease; [1]) [nM] | Ki (HIV-1 protease; [1]) [nM] | IC50 (HIV-1 protease) [nM] | Ki (HIV-1 protease) [nM] | activity in the antiviral assay (HIV) | IC50 (HIV-1 (CEM cells)) [µg/mL] | IC50 (HIV-1 (MT-2 cells)) [µg/mL]
CCC1(N(CCO)C(=O)c2ccccc2CC[C@@H](O)Cc2ccc(C)cc2C(=O)N(CCO)C(C)(C)c2ccccc2)CCCC1 [Example 116a] |  |  |  |  | more active |  | 
CCC1(N(CCO)C(=O)c2ccccc2CC[C@H](O)Cc2ccc(C)cc2C(=O)N(CCO)C(C)(C)c2ccccc2)CCCC1 [Example 116b] |  |  |  |  | less active |  | 
Cc1ccc(CCC(O)Cc2ccccc2C(=O)N(CCO)C(C)(C)c2ccccc2)c(C(=O)N(CCO)C(C)(C)C)c1 (stereo not drawn) [Example 62] | 169 | 152 |  |  |  | 2.86 (≈ 4.86 µM) | 4.98 (≈ 8.46 µM)
Cc1ccc(CC(O)CCc2ccccc2C(=O)N(CCO)C(C)(C)C)c(C(=O)N(CCO)C(C)(C)c2ccccc2)c1 (stereo not drawn) [Example 74] | 180 | 21 |  |  |  | 3.69 (≈ 6.27 µM) | 5.54 (≈ 9.41 µM)
CCCC(CC)(CC)N(CCO)C(=O)c1ccccc1CC(O)CCc1ccccc1C(=O)N(CCO)C(C)(C)C (stereo not drawn) [Example 92] | 183 | 88 |  |  |  | 2.12 (≈ 3.73 µM) | 5.06 (≈ 8.9 µM)
CC(C)(c1ccccc1)N(CCO)C(=O)c1ccccc1CCC(O)Cc1ccccc1C(=O)N(CCO)C(C)(C)c1ccccc1 (stereo not drawn) [Example 65] | 82 | 31 |  |  |  | 0.89 (≈ 1.4 µM) | 1.76 (≈ 2.76 µM)
CCC1(N(CCO)C(=O)c2ccccc2CCC(O)Cc2ccc(C)cc2C(=O)N(CCO)C(C)(C)c2ccc(O)cc2)CCCC1 (stereo not drawn) [Example 96] |  |  | 63 | 4 |  | 0.57 (≈ 0.884 µM) | 1.18 (≈ 1.83 µM)
CC(C)(C)N(CCO)C(=O)c1ccccc1CCC(O)Cc1ccccc1C(=O)N(Cc1ncc[nH]1)C(C)(C)c1ccccc1 (stereo not drawn) [Example 72] | 326 | 100 |  |  |  | 5.54 (≈ 9.07 µM) | 17.9 (≈ 29.3 µM)
CCSc1ccc(CC(O)CCc2ccccc2C(=O)N(CCO)C2(CC)CCCC2)c(C(=O)N(CCO)C(C)(C)c2ccccc2)c1 (stereo not drawn) [Example 99] | 196 | 15 |  |  |  | 1.62 (≈ 2.4 µM) | 5.75 (≈ 8.52 µM)
CCC1(N(CCO)C(=O)c2ccccc2CCC(O)Cc2ccccc2C(=O)N(CCC(O)CO)C(C)(C)c2ccccc2)CCCC1 (stereo not drawn) [Example 100] | 110 | 7 |  |  |  | 0.48 (≈ 0.729 µM) | 1.94 (≈ 2.94 µM)
CCC1(N(CCO)C(=O)c2ccccc2CCC(O)Cc2ccccc2C(=O)N(CCO)C23CCCCC2CCCC3)CCCC1 (stereo not drawn) [Example 97] | 225 | 38 |  |  |  | 1.58 (≈ 2.5 µM) | > 10
CCC1(N(CCO)C(=O)c2ccccc2CCC(O)Cc2ccc(C)cc2C(=O)N(CCO)C(CC)(CC)c2ccccc2)CCCC1 (stereo not drawn) [Example 101] | 102 | 4 |  |  |  | 4.16 (≈ 6.33 µM) | 1.67 (≈ 2.54 µM)
CC(C)(C)N(CCO)C(=O)c1ccccc1CCC(O)Cc1ccccc1C(=O)N(CCO)C(C)(C)c1ccccc1 (stereo not drawn) [Example 91] | 274 | 172 |  |  |  | 1.95 (≈ 3.39 µM) | 5.28 (≈ 9.19 µM)
CC(C)(C)N(CCO)C(=O)c1ccccc1CCC(O)Cc1ccccc1C(=O)N(CCO)C(C)(C)C (stereo not drawn) [Example 1] |  |  | 1030 | 835 |  | 18.6 (≈ 36.3 µM) | 23 (≈ 44.9 µM)

Second part, led by results:

IC50 (HIV-1 protease; [1]) [nM] | Ki (HIV-1 protease; [1]) [nM] | IC50 (HIV-1 protease) [nM] | Ki (HIV-1 protease) [nM] | Compound | activity in the antiviral assay (HIV) | IC50 (HIV-1 (CEM cells)) [µg/mL] | IC50 (HIV-1 (MT-2 cells)) [µg/mL]
86 | 1 |  |  | CCC1(N(CCO)C(=O)c2ccccc2CCC(O)Cc2ccc(Cl)cc2C(=O)N(CCO)C(C)(C)c2ccccc2)CCCC1 (stereo not drawn) [Example 105] |  | 0.47 (≈ 0.724 µM) | 0.49 (≈ 0.755 µM)
103 | 10 |  |  | CCC1(N(CCO)C(=O)c2ccccc2CCC(O)Cc2ccc(C)cc2C(=O)N(CCO)C(C)(C)c2ccc(OCCCN(CCO)CCO)cc2)CCCC1 (stereo not drawn) [Example 113] |  | 1.73 (≈ 2.19 µM) | 1.58 (≈ 2 µM)
68 | 5.4 |  |  | CCC1(N(CCOC(C)=O)C(=O)c2ccccc2CCC(O)Cc2ccc(C)cc2C(=O)N(CCOC(C)=O)C(C)(C)c2ccccc2)CCCC1 (stereo not drawn) [Example 110] |  | 0.69 (≈ 0.968 µM) | 1.72 (≈ 2.41 µM)
 |  | 81 | 9.6 | CCC1(N(CCO)C(=O)c2ccccc2CCC(O)Cc2ccc(C)cc2C(=O)N(CCC(O)CO)C(C)(C)c2ccccc2)CCCC1 (stereo not drawn) [Example 104] |  | 0.58 (≈ 0.862 µM) | 0.55 (≈ 0.817 µM)
290 | 17 |  |  | CCC1(N(CCO)C(=O)c2ccccc2CCC(O)Cc2ccc(C)cc2C(=O)N(CC2CCCO2)C(C)(C)c2ccccc2)CCCC1 (stereo not drawn) [Example 115] |  | 4.16 (≈ 6.22 µM) | 6.34 (≈ 9.48 µM)
67 | 3.9 |  |  | CCC1(N(CC2COC(C)(C)OC2)C(=O)c2ccccc2CCC(O)Cc2ccc(C)cc2C(=O)N(CC2COC(C)(C)OC2)C(C)(C)c2ccccc2)CCCC1 (stereo not drawn) [Example 106] |  | 3.91 (≈ 4.91 µM) | 1.7 (≈ 2.13 µM)
398 | 230 |  |  | CCC1(N(CCO)C(=O)c2ccccc2CCC(O)Cc2ccc(C)cc2C(=O)N(CCOC(=O)[C@@H](N)C(C)C)C(C)(C)c2ccccc2)CCCC1 (stereo partly drawn) [Example 114] |  | 2.11 (≈ 2.9 µM) | 1.75 (≈ 2.4 µM)
